This is an account of results in patent US7947717B2 (priority 2008, dated 2011).

Like-named read-outs stand apart in the source and are kept apart here.

Series [1] deals with T1, MMP-9 (Homo sapiens, UniProt P14780).
T1 construct: purchased Anaspec, Inc. 71151/71155
The series is described as follows: MMP-9 assay (Anaspec kit). It is filed as biochemical.

In series [2] the target is lethal factor (LF) (Bacillus anthracis, UniProt P15917). The series is described as follows: biochemical. It is filed as biochemical.
For series [3], the target named is BoNT A (Clostridium botulinum, UniProt P0DPI0). Kind of series: biochemical.
Series [4] has as its target T2, MMP-2 (Homo sapiens, UniProt P08253).
T2 construct: purchased Anaspec, Inc. 71151/71155
T2 sequence (P08253 110-660): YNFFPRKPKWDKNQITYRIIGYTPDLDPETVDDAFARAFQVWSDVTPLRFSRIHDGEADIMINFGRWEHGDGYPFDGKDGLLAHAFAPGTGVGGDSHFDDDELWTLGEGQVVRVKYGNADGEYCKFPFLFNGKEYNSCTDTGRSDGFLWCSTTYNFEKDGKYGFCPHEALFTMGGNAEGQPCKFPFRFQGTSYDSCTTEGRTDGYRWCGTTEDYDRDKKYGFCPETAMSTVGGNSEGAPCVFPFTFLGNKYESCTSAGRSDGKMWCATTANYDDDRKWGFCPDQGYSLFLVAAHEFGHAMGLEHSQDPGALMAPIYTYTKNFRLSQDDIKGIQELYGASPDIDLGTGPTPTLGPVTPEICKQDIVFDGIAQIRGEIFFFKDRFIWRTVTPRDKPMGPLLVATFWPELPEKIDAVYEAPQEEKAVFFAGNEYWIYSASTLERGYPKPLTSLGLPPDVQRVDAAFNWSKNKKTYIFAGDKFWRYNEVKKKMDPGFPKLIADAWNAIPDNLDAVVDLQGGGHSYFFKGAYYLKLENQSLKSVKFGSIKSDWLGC
The series is described as follows: MMP-2 assay (Anaspec kit). It is filed as biochemical.

A short description of series [5]: physchem. As to conditions: 23 °C, pH 7.4, aqueous with cosolvent or surfactant or cyclodextrin, kinetic from dmso stock.

lethal factor (LF), sequence (P15917 34-809 limits assumed): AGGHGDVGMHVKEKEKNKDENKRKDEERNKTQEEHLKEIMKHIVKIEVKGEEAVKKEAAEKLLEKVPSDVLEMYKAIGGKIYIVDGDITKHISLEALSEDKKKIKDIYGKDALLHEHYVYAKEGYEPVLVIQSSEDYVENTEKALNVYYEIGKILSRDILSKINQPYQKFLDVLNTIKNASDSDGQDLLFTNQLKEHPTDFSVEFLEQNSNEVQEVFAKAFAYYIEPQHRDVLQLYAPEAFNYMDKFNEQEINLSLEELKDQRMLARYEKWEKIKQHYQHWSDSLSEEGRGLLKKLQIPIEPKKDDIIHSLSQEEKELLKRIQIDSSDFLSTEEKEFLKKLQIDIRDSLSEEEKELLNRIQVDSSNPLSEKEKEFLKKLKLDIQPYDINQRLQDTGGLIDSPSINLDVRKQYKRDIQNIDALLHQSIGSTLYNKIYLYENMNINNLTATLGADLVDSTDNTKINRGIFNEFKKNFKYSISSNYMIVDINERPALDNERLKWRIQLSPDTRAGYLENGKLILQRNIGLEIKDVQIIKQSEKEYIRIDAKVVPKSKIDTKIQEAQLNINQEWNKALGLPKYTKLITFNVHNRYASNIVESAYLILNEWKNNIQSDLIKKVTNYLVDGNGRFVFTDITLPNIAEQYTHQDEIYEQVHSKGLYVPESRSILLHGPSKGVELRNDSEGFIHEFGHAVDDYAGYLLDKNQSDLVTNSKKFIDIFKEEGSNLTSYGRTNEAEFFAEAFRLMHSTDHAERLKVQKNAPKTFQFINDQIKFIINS
T1 sequence (P14780 107-707 limits assumed): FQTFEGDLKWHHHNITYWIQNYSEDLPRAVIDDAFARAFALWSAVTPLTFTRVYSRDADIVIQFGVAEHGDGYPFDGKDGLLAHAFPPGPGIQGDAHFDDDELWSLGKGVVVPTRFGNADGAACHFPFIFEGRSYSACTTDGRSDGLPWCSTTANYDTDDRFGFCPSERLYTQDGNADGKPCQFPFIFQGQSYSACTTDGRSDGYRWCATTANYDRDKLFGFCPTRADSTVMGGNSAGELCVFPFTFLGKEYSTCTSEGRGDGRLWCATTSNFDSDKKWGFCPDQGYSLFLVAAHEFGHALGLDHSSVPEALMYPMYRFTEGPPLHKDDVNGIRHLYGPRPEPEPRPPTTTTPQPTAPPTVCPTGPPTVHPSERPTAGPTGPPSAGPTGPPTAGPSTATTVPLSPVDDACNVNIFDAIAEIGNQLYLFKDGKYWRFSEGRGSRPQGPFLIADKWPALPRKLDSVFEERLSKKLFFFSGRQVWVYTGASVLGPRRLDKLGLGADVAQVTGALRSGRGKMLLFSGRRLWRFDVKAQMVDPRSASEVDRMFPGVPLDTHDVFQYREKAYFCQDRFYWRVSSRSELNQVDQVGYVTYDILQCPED
BoNT A, sequence (P0DPI0 whole entry, looked up): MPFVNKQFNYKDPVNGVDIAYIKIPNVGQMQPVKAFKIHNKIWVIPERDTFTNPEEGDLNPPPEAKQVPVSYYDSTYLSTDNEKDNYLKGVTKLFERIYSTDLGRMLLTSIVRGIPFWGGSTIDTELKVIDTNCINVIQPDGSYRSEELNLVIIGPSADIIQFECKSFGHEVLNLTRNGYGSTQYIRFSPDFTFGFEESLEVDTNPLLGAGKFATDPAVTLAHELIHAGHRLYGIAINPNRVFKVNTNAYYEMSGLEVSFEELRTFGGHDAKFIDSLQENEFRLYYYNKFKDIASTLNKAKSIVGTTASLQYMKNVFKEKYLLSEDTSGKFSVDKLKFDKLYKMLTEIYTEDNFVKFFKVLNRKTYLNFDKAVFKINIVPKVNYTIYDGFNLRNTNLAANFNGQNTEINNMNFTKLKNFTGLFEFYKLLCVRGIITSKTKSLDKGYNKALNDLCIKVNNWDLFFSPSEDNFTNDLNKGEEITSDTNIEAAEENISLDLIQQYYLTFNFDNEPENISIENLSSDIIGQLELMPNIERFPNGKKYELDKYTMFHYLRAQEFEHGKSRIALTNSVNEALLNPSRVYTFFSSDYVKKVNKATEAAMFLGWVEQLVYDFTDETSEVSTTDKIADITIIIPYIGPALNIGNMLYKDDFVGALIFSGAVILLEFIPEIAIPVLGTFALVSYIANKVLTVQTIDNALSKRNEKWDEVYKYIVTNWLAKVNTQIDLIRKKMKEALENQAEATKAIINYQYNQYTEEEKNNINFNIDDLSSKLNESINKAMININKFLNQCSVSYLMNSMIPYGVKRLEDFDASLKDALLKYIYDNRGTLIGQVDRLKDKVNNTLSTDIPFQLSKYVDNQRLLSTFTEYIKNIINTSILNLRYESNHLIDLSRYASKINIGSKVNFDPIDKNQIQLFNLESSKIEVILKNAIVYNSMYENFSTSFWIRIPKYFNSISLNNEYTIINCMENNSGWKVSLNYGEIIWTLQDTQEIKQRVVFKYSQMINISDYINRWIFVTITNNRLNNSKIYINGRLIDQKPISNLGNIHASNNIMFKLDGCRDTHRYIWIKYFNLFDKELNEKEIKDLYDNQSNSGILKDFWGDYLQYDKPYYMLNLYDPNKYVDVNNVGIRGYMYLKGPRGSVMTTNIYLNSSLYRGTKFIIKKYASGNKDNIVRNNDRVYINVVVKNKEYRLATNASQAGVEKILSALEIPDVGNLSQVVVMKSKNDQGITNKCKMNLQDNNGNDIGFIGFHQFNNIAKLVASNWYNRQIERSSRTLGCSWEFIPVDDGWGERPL

Regarding `O=C(O)CN1C(=O)C(=Cc2cc(-c3ccc(F)cc3)on2)SC1=S` [Compound 25, 2-(5-((5-(4-fluorophenyl)isoxazol-3-yl)methylene)-4-oxo-2-thioxothiazolidin-3-yl)acetic acid], the IC50 (commonly the concentration at which inhibition is half-maximal) in series [1] is over 100 µM; in series [2], 12.4 µM; in series [3], over 200 µM; in series [4] it was 10 µM.
In the case of `O=C(O)CN1C(=O)/C(=C/c2sc(Br)c3c2OCCO3)SC1=S` [Compound 47, (Z)-2-(5-((7-bromo-2,3-dihydrothieno[3,4-b][1,4]dioxin-5-yl)methylene)4-oxo-2-thioxothiazolidin-3-yl)acetic acid], the concentration for half-maximal inhibition (IC50) in series [2] (pH 7.4, read-out: LF IC50) was 11.4 µM; in series [3] it was over 200 µM; in series [4] (read-out: MMP2 IC50), 50.6 µM.
As for `O=C(O)CN1C(=O)/C(=C/c2cn(-c3ccc(F)cc3)nc2-c2ccc(F)cc2)SC1=S` [Compound 33, (Z)-2-(5-((1,3-bis(4-fluorophenyl)-1H-pyrazol-4-yl)methylene)-4-oxo-2-thioxothiazolidin-3-yl)acetic acid], the IC50 came out at 4.22 µM in series [2] (pH 7.4, read-out: LF IC50); 52.6 µM in series [3]; 39.4 µM in series [4].
For the compound `O=C(O)CN1C(=O)/C(=C/c2cn(-c3ccc(F)cc3F)nc2-c2cccnc2)SC1=S` [Compound 32, (Z)-2-(5-((1-(2,4-difluorophenyl)-3-(pyridin-3-yl)-1H-pyrazol-4-yl)methylene)-4-oxo-2-thioxothiazolidin-3-yl)acetic acid], the IC50 in series [2] (pH 7.4, read-out: LF IC50) amounted to 2.99 µM; in series [3] it was 71.5 µM; in series [4] it was 13.7 µM.
For the compound `Cc1ccc(-c2cc(C=C3SC(=S)N(CC(=O)O)C3=O)no2)cc1` [Compound 22, 2-(4-oxo-2-thioxo-5-((5-p-tolylisoxazol-3-yl)methylene)thiazolidin-3-yl)acetic acid], the half-inhibitory concentration (IC50) in series [1] was over 100 µM; in series [2], 5.9 µM; in series [3] it was 130 µM; in series [4], under 10 µM.
`O=C(O)CN1C(=O)/C(=C/c2csc3ccc(Br)cc23)SC1=S` [Compound 58, (Z)-2-(5-((5-bromobenzo[b]thiophen-3-yl)methylene)-4-oxo-2-thioxothiazolidin-3-yl)acetic acid]: the IC50 came to 64.9 µM in series [1] (read-out: MMP9 IC50); 10.4 µM in series [2] (pH 7.4, read-out: LF IC50); 74.3 µM in series [3]; 46.9 µM in series [4] (read-out: MMP2 IC50).
In the case of `O=C1/C(=C/c2cn(-c3ccccc3)nc2-c2ccc(Cl)cc2)SC(=S)N1CCS(=O)(=O)O` [Compound 41, (Z)-2-(5-((3-(4-chlorophenyl)-1-phenyl-1H-pyrazol-4-yl)methylene)-4-oxo-2-thioxothiazolidin-3-yl)ethanesulfonic acid], the IC50 in series [2] (pH 7.4, read-out: LF IC50) is 3.66 µM; in series [3], over 200 µM; in series [4] it was 26.9 µM.
For `O=C(O)CN1C(=O)C(=Cc2cc(-c3ccc(Br)cc3)on2)SC1=S` [Compound 26, 2-(5-((5-(4-bromophenyl)isoxazol-3-yl)methylene)-4-oxo-2-thioxothiazolidin-3-yl)acetic acid], the half-inhibitory concentration (IC50) in series [1] is 27.4 µM; in series [2], 17.3 µM; in series [3] it was over 200 µM; in series [4], over 100 µM.
`CC(=O)Oc1ccccc1C(=O)O` [acetylsalicylic acid, reference compound]: the solubility (in general, how much of the substance goes into solution per volume) in series [5] was over 100 µg/mL.
For the compound `O=C(O)CN1C(=O)/C(=C2/C(=O)N(CC(=O)Nc3cccc(Cl)c3)c3ccccc32)SC1=S` [Compound 62, (Z)-2-(5-(1-(2-(3-chlorophenylamino)-2-oxoethyl)-2-oxoindolin-3-ylidene)-4-oxo-2-thioxothiazolidin-3-yl)acetic acid], the IC50 is over 25 µM in series [1]; 4.4 µM in series [2] (pH 7.4, read-out: LF IC50); over 200 µM in series [3]; over 25 µM in series [4].
On to `O=C(O)CN1C(=O)/C(=C/c2cn(-c3ccc(Br)cc3)nc2-c2ccc(Br)cc2)SC1=S` [Compound 35, (Z)-2-(5-((1,3-bis(4-bromophenyl)-1H-pyrazol-4-yl)methylene)-4-oxo-2-thioxothiazolidin-3-yl)acetic acid], for which the “inhibition of MMP-9 (in words)” value in series [1] was “did not inhibit”. Also, the IC50 in series [2] (pH 7.4, read-out: LF IC50) was found to be 3.35 µM; in series [3] it was 5.45 µM. Moreover, in series [4], the “inhibition of MMP-2 (in words)” value is “did not inhibit”.
In the case of `CC(C)NCC(O)COc1cccc2ccccc12` (centres unmarked) [Propranolol], the “Pampa (d) permeability class” value is reported as “High”.
Consider `O=C(O)CN1C(=O)C(=Cc2cc(-c3ccc(Cl)cc3)on2)SC1=S` [Compound 24, 2-(5-((5-(4-chlorophenyl)isoxazol-3-yl)methylene)-4-oxo-2-thioxothiazolidin-3-yl)acetic acid], for which the IC50 was over 100 µM in series [1], 82.7 µM in series [3] and 19.2 µM in series [4].
On to `O=C(O)CN1C(=O)/C(=C/c2ccc(N3CCOCC3)s2)SC1=S` [Compound 48, (Z)-2-(5-((5-morpholinothiophen-2-yl)methylene)-4-oxo-2-thioxothiazolidin-3-yl)acetic acid], for which the IC50 was 64.9 µM in series [1] (read-out: MMP9 IC50); 32.5 µM in series [2] (pH 7.4, read-out: LF IC50); 112 µM in series [3]; 47.1 µM in series [4] (read-out: MMP2 IC50).
Consider Lucifer Yellow, for which the “Pampa (d) permeability class” value is “Low”.
Consider `COc1ccc(-c2cc(C=C3SC(=S)N(CC(=O)O)C3=O)no2)cc1` [Compound 23, 2-(5-((5-(4-methoxyphenyl)isoxazol-3-yl)methylene)-4-oxo-2-thioxothiazolidin-3-yl)acetic acid], for which the figures for the IC50 in series [1], in series [3] and in series [4] were over 100 µM, 194 µM and 6.62 µM, respectively.
`Cc1ccc2cc(/C=C3\SC(=S)N(CC(=O)O)C3=O)ccc2n1` [Compound 54, (Z)-2-(5-((2-methylquinolin-6-yl)methylene)-4-oxo-2-thioxothiazolidin-3-yl)acetic acid]: the IC50 in series [2] (pH 7.4, read-out: LF IC50) is 5.25 µM; in series [3], over 200 µM; in series [4] (read-out: MMP2 IC50) it was 18 µM.
With `O=C1/C(=C/c2cn(-c3ccccc3)nc2-c2ccc(S(=O)(=O)N3CCCCC3)cc2)SC(=S)N1CCS(=O)(=O)O` [Compound 43, (Z)-2-(4-oxo-5-((1-phenyl-3-(4-(piperidin-1-ylsulfonyl)phenyl)-1H-pyrazol-4-yl)methylene)-2-thioxothiazolidin-3-yl)ethanesulfonic acid], the half-inhibitory concentration (IC50) came to 2.07 µM in series [2] (pH 7.4, read-out: LF IC50) and 20.1 µM in series [3].
On to `O=C(O)CN1C(=O)/C(=C/c2cc(-c3ccco3)on2)SC1=S` [Compound 20, (Z)-2-(5-((5-(furan-2-yl)isoxazol-3-yl)methylene)-4-oxo-2-thioxothiazolidin-3-yl)acetic acid], for which the half-maximal inhibitory concentration (IC50) in series [2] (pH 7.4, read-out: LF IC50) is 17 µM; in series [3] it was over 200 µM; in series [4] (read-out: MMP2 IC50) it was 39.4 µM.
As to `O=C(O)CN1C(=O)/C(=C/c2cn(-c3ccccc3)nc2-c2cccs2)SC1=S` [Compound 29, (Z)-2-(4-oxo-5-((1-phenyl-3-(thiophen-2-yl)-1H-pyrazol-4-yl)methylene)-2-thioxothiazolidin-3-yl)acetic acid], the IC50 in series [2] (pH 7.4, read-out: LF IC50) was 3.07 µM; in series [3], 160 µM.
In the case of `O=C(O)CN1C(=O)C(=Cc2cc(-c3ccccc3)on2)SC1=S` [Compound 21, 2-(4-oxo-2-thioxo-5-((5-phenylisoxazol-3-yl)methylene)thiazolidin-3-yl)acetic acid], the IC50 was 50 µM in series [1], 18.7 µM in series [2], over 200 µM in series [3] and over 100 µM in series [4].
Turning to `O=C(O)CN1C(=O)/C(=C/c2ccc(-c3ccc([N+](=O)[O-])cc3Cl)o2)SC1=S` [Compound 4], the half-maximal inhibitory concentration (IC50) turned out to be 2.1 µM in series [2] (pH 7.4, read-out: LF IC50) and 11.8 µM in series [3].
